Assay results: PubChem BioAssay (NCI)
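Dose response: 5 concentrations. Exposure: 48 h. Format: 96-well plates. Endpoint: linear interpolation; highest concentration if not reached. Here, GI50 denotes the concentration required for 50% inhibition of growth. TGI: concentration producing complete growth inhibition.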

Columns and labels:
Assay in all cases: DTP human tumour cell line panel, 48 h
[1] = system: 786-0 renal
[2] = system: HL-60(TB) leukemia
[3] = system: HOP-62 NSCLC
[4] = system: HOP-92 NSCLC
[5] = system: KM12 colon
[6] = system: MALME-3M melanoma
[7] = system: NCI/ADR-RES ovarian
[8] = system: SF-539 CNS
[9] = system: SNB-19 CNS
[10] = system: SW-620 colon

Compound	GI50 [1] [µM]	TGI [1] [µM]	GI50 [2] [µM]	TGI [2] [µM]	GI50 [3] [µM]	TGI [3] [µM]	GI50 [4] [µM]	TGI [4] [µM]	GI50 [5] [µM]	TGI [5] [µM]	GI50 [6] [µM]	TGI [6] [µM]	GI50 [7] [µM]	TGI [7] [µM]	GI50 [8] [µM]	TGI [8] [µM]	GI50 [9] [µM]	TGI [9] [µM]	GI50 [10] [µM]	TGI [10] [µM]
N#CCCCCCn1c2ccccc2c2c3c(c4c5ccccc5[nH]c4c21)C(=O)N(O)C3=O	1.64	3.23	1.48	3.5	0.468	2.79	2.46	5.24	1.37	3.39	1.96	5.01	5.52	> 100	0.632	2.05	0.959	> 100	1.01	34.8
CCOC(=O)Nc1ccc2nc(Sc3ccc(Cl)cc3)sc2c1	8.12	40.3	0.815	30.1	9.43	> 100	7.98	65.4	0.684	> 58.8	5.7	37.1	1.07	47.3	2.92	22.1	7.31	> 100	0.488	> 100
CC(=O)O[C@H]1Cc2c([nH]c3ccccc23)[C@@H](c2ccc(Cl)cc2)N1C(=O)CCNC(C)(C)C	3.64	7.92	2.51	11.7	2.67	7.07	1.1	5.61	4.33	9.51	4.26	8.96	5.57	12.2	4.69	9.12	4.64	9.06	4.12	8.8
COc1ccc(OC)c(/C=C/C(=O)c2ccc(SC)cc2)c1	7.53	21.6	3.65	12.6	18.4	52.3	6	> 100	4.9	27.7	–	–	3.28	11.8	2.55	6.99	9.68	46.5	3.45	> 100
COC(=O)C1=C(C)NC(C)=C(C(=O)OC)C1c1ccccc1[N+](=O)[O-]	> 100	> 100	31.7	> 100	> 100	> 100	23.3	> 100	> 100	> 100	> 100	> 100	49.3	> 100	> 100	> 100	> 100	> 100	> 100	> 100
Cn1cc(C2=C(c3cccc(Cl)c3)C(=O)NC2=O)c2ccccc21	20.4	> 25	> 25	> 25	> 25	> 25	–	–	> 25	> 25	> 25	> 25	> 25	> 25	> 25	> 25	> 25	> 25	> 25	> 25
CC1CCCc2c(CC3CC(=O)NC(=O)C3)nc(N)nc21 (centres undefined)	–	> 100	–	> 100	–	> 100	–	> 100	–	> 100	–	> 100	–	> 100	–	> 100	–	–	–	> 100
COc1ccc2c(c1)/C(=N/OC(C)=O)c1c-2c(Nc2ccc(/C(C)=N/OC(C)=O)cc2)nc2ccccc12	> 100	> 100	16.3	> 100	38.1	> 100	70.1	> 100	43.5	> 100	56.8	> 100	33	> 100	> 100	> 100	> 100	> 100	36.5	> 100
CC[C@@]1(O)C(=O)N(CCN(C)C)Cc2c1cc1n(c2=O)Cc2cc3ccccc3nc2-1	8.09	> 100	5.4	> 100	5.21	> 100	> 25.9	> 100	12.5	> 54.1	> 100	> 100	13.7	> 94.8	3.77	13.1	> 24.9	> 100	34.6	> 100
NS(=O)(=O)c1ccc(N=Nc2cc3ccccc3c(C(=O)O)c2O)cc1	–	> 100	–	> 100	–	> 100	–	> 100	–	> 100	–	> 82	–	> 100	–	> 100	–	> 100	–	> 100
c1ccc2c(Nc3ccc4c(c3)OCO4)c3ccoc3nc2c1	17.3	40.3	–	–	15.4	32.3	12.7	43.3	14.2	35.2	15.9	34.3	7.66	75.5	–	–	26.5	81.3	–	–
O=C(CN1CCN(c2cc3c(cc2F)c(=O)c(C(=O)O)cn3C2CC2)CC1)Nc1ccc(C(=O)/C=C/c2ccccc2)cc1	4.5	> 100	9.44	> 100	4.46	> 100	0.431	3.82	4.11	> 100	2.89	8.87	9.75	> 100	3.6	> 100	3.05	> 100	3.8	> 100
O=C(c1nc2ccccc2[nH]1)C1C(c2cccc([N+](=O)[O-])c2)C2CC3CCCCC3N2[C@@]12C(=O)Nc1cc(Cl)ccc12 (some centres undefined)	1.89	4.52	2.58	6.67	1.86	4.62	1.37	3.64	1.63	3.5	1.42	2.96	2.51	8.18	1.69	3.19	2.04	6.43	1.78	4.31
